In PMC11477000, “Enantioselective Binding of Proton Pump Inhibitors to Alpha1-Acid Glycoprotein and Human Serum Albumin—A Chromatographic, Spectroscopic, and In Silico Study” (International Journal of Molecular Sciences, 2024):

Legend:
Type in all cases: binding
[1] = biological target: T1, human serum albumin (HSA) (Homo sapiens, UniProt P02768); assay: van 't Hoff thermodynamic analysis on HSA column; settings: for Δ(ΔG°) / Δ(ΔH°) / Δ(ΔS°): pH 7, 95:5 buffer:IPA, 10–30 °C
Method: The temperature effect was investigated at pH 7 and a 95:5 buffer:IPA eluents ratio, between 10 and 30 °C on both columns. […] The determination of thermodynamic parameters can provide valuable insights into the process of enantiodiscrimination, including its mechanistic aspects. The applied classical van ’t Hoff methodology postulates the existence of solely enantioselective interaction sites on the stationary phase. Nonetheless, it should be emphasized that a more realistic approach would encompass both enantioselective and non-enantioselective interactions. The isoenantioselective temperatures (Tiso) were calculated by dividing Δ(ΔH°) by Δ(ΔS°). At this temperature, enthalpy and entropy compensations negate each other, resulting in the coelution of the two enantiomers and no separation. The Q values (Q = Δ(ΔH°)/T × Δ(ΔS°)298K) were used for visualizing the relative contribution of enthalpic and entropic terms to the free energy of adsorption. If the Q values were smaller than 1, the enantioseparation was controlled by entropy to a higher extent.
Classical van ’t Hoff analysis was applied to determine the thermodynamic parameters. Van ’t Hoff plots were constructed by plotting the natural logarithm of the retention factor as a function of the inverse of the absolute temperature (thermodynamic temperature) over a temperature range of 10–30 °C:(5) […]
In the equation, R represents the universal gas constant, T represents the absolute temperature in Kelvin, and k represents the retention factor of the enantiomers. ΔH° stands for the standard enthalpy, while ΔS° represents the standard entropy change of transfer of the solute from the mobile phase to the stationary phase. Φ is the phase ratio of the column. If ΔH° remains constant within the selected temperature range, a linear relationship can be observed between lnk and 1/T. The slope of this relationship is −ΔH°/R, and the intercept is ΔS°/R + ln Φ. Since the value of the phase ratio is rarely known, ΔS°* values (ΔS°* = ΔS° + Rln Φ) are often used to account for the uncertainty in Φ. Similarly, the difference in the change of standard enthalpy, Δ(ΔH°), and standard entropy, Δ(ΔS°), for the two enantiomers was calculated as follows:(6) lnα=−ΔΔH°/RT+ΔΔS°/R

[2] = biological target: T1, human serum albumin (HSA); assay: Displacement chromatography on HSA column with warfarin and ibuprofen as competitors; settings: IPA:10 mM pH 7 phosphate buffer 1:99, 25 °C
Method: For identification of the binding site of HSA, a displacement chromatography and fluorescence displacement study were performed. In the case of chromatography, to the mobile phase, increasing concentrations of the competitors, warfarin and ibuprofen, that are known to bind to specific binding sites on HSA, Sudlow site I and Sudlow site II, respectively, were added. In the case of the fluorescence displacement study, the fluorescence quenching data of the PPI-HSA system in the presence of warfarin and ibuprofen were investigated.
(Chromatographic parameter: Column temperature: 25 °C,
mobile phase: IPA : 10 mM pH 7 sodium phosphate buffer 1:99, flow rate: 0.7 mL/min, detection

[3] = biological target: T1, human serum albumin (HSA); assay: HPLC on HSA-based chiral stationary phase (Daicel Chiralpak HSA column); settings: for EEO enantiomer elution order / Rs resolution / k1 retention factor (first-eluting enantiomer) / k2 retention factor (second-eluting enantiomer): HSA column, 25 °C
Method: HPLC using a protein-based chiral stationary phase is a fully automated method for obtaining rapid information about the binding of compounds to the respective proteins. Enantioseparation occurs in the case of unequal binding constants of the individual enantiomers to the immobilized proteins, thus allowing enantioselective binding to be characterized even when a racemic mixture was injected. As a preliminary step, the enantiospecific binding was investigated on columns containing AGP and HSA in various alcohol:buffer mixtures. A pH 7 phosphate buffer was employed as the aqueous part of the mobile phase, while for the organic part, three different alcohols were evaluated.
In the following step, we investigated the effect of changing some other chromatographic conditions on the protein binding. The pH of the aqueous phase influenced the protonation state of both the analyte and the proteins. It should be noted that the pH tolerance of protein-based columns is narrow due to the possible denaturation of proteins. Taking into account the guidelines of the manufacturer, three different pH values were investigated (pH 6, 6.5, and 7) at a 95:5 (v/v%) buffer:IPA eluents ratio [49]. The buffer was uniformly 10 mM phosphate. […] The effect of different buffer constituents was also evaluated. In addition to phosphate buffer, ammonium acetate, ammonium bicarbonate, and sodium citrate were tested and compared under the same conditions.
Chromatographic measurements were carried out on two separate HPLC systems. The AGP binding study was performed on a Waters 2695e chromatographic system paired with a Waters 2996 PDA detector, controlled by Empower 3 FR5 (Waters Corp., Milford, MA, USA), while the HSA binding study was performed on an Agilent 1100 HPLC system, consisting of an inline degasser (G1322A), a quaternary pump (G1311A), an automatic injector (G1329A) paired with sample thermostat (G1330A), a column thermostat (G1316A), and a diode array detector (G1315A) with Agilent Chemstation B04.03-SP2 software (Agilent, Bronnwald, Germany). For the binding studies, two protein-based chiral stationary phases were utilized. The chromatographic binding study for AGP was conducted on a ChromTech Chiral-AGP column (150 mm × 4.0 mm; ChromTech Ltd., Congleton, UK), while the binding study for HSA was performed on a Daicel Chiralpak HSA column (50 mm × 4.0 mm; Daicel Corp., Osaka, Japan). The detection wavelength was 210 nm for all measurements. The stock solutions of PPIs were prepared at a concentration of 1 mg/mL in MeOH. Subsequent dilutions were prepared using water. The injected samples were mixed and diluted from the stock solutions. The final concentration for the eutomer was 0.2 mg/mL, and for the distomer, it was 0.1 mg/mL. A volume of 2 μL was injected. To mitigate the instability of PPIs in aqueous solutions, the samples were kept at a temperature of 4 °C.

[4] = 1% EtOH, 10 mM pH 7 phosphate buffer
[5] = 1% IPA, 10 mM pH 7 phosphate buffer
[6] = 1% MeOH, 10 mM pH 7 phosphate buffer
[7] = 2.5% EtOH, 10 mM pH 7 phosphate buffer
[8] = 2.5% IPA, 10 mM pH 7 phosphate buffer
[9] = 2.5% MeOH, 10 mM pH 7 phosphate buffer
[10] = 5% EtOH, 10 mM pH 7 phosphate buffer
[11] = 5% IPA, 10 mM pH 7 phosphate buffer
[12] = 5% MeOH, 10 mM pH 7 phosphate buffer
[13] = 7.5% EtOH, 10 mM pH 7 phosphate buffer
[14] = 7.5% IPA, 10 mM pH 7 phosphate buffer
[15] = 7.5% MeOH, 10 mM pH 7 phosphate buffer
[16] = 10% EtOH, 10 mM pH 7 phosphate buffer
[17] = 10% IPA, 10 mM pH 7 phosphate buffer
[18] = 10% MeOH, 10 mM pH 7 phosphate buffer
[19] = 12.5% IPA, 10 mM pH 7 phosphate buffer
[20] = difference between the two enantiomers

T1 sequence (P02768 25-609): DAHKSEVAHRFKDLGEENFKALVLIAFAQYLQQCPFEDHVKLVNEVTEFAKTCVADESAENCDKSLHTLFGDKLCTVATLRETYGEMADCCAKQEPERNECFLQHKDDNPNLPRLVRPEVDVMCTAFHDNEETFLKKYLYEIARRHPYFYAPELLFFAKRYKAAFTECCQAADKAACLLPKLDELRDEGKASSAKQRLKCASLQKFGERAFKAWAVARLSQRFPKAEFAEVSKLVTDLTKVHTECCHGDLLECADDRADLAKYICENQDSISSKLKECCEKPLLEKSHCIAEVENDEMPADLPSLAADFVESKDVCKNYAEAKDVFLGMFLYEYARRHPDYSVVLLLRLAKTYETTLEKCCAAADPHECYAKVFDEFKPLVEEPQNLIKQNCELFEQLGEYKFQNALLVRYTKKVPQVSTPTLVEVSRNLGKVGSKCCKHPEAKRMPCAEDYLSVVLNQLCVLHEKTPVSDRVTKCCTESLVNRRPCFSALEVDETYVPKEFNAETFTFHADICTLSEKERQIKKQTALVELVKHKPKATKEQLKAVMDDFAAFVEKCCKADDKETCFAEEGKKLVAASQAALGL

Cc1c(OCC(F)(F)F)ccnc1C[S@@+]([O-])c1nc2ccccc2[nH]1 [R-lansoprazole, dexlansoprazole]
Δ(ΔG°) ([1]; single enantiomer): -1.39 kcal/mol | Δ(ΔH°) ([1]; single enantiomer): -2.01 kcal/mol | Δ(ΔS°) ([1]; single enantiomer): −8.7 J/molK | k retention factor ([2]; ibuprofen 0 mM): 18.27 | k retention factor ([2]; ibuprofen 0.01 mM): 13.98 | k retention factor ([2]; ibuprofen 0.05 mM): 10.41 | k retention factor ([2]; ibuprofen 0.1 mM): 7.60 | k retention factor ([2]; warfarin 0 mM): 18.27 | k retention factor ([2]; warfarin 0.01 mM): 14.84 | k retention factor ([2]; warfarin 0.05 mM): 12.07 | k retention factor ([2]; warfarin 0.1 mM): 10.51

Cc1c(OCC(F)(F)F)ccnc1C[S+]([O-])c1nc2ccccc2[nH]1 (centres unmarked) [Lansoprazole, lansoprazole]
EEO enantiomer elution order [3, 4]: R < S | Rs resolution [3, 4]: 1.0 | k1 retention factor (first-eluting enantiomer) [3, 4]: 10.13 | k2 retention factor (second-eluting enantiomer) [3, 4]: 14.32 | EEO enantiomer elution order [3, 5]: R < S | Rs resolution [3, 5]: 1.8 | k1 retention factor (first-eluting enantiomer) [3, 5]: 11.17 | k2 retention factor (second-eluting enantiomer) [3, 5]: 18.27 | EEO enantiomer elution order [3, 6]: R < S | Rs resolution [3, 6]: 1.0 | k1 retention factor (first-eluting enantiomer) [3, 6]: 10.66 | k2 retention factor (second-eluting enantiomer) [3, 6]: 15.61 | EEO enantiomer elution order [3, 7]: R < S | Rs resolution [3, 7]: 0.3 | k1 retention factor (first-eluting enantiomer) [3, 7]: 6.92 | k2 retention factor (second-eluting enantiomer) [3, 7]: 8.39 | EEO enantiomer elution order [3, 8]: R < S | Rs resolution [3, 8]: 1.0 | k1 retention factor (first-eluting enantiomer) [3, 8]: 9.26 | k2 retention factor (second-eluting enantiomer) [3, 8]: 12.87 | EEO enantiomer elution order [3, 9]: R < S | Rs resolution [3, 9]: 0.8 | k1 retention factor (first-eluting enantiomer) [3, 9]: 7.92 | k2 retention factor (second-eluting enantiomer) [3, 9]: 10.16 | k1 retention factor (first-eluting enantiomer) [3, 10]: 5.26 | k2 retention factor (second-eluting enantiomer) [3, 10]: 5.26 | EEO enantiomer elution order [3, 11]: R < S | Rs resolution [3, 11]: 0.2 | k1 retention factor (first-eluting enantiomer) [3, 11]: 5.79 | k2 retention factor (second-eluting enantiomer) [3, 11]: 6.63 | EEO enantiomer elution order [3, 12]: R < S | Rs resolution [3, 12]: 0.2 | k1 retention factor (first-eluting enantiomer) [3, 12]: 6.05 | k2 retention factor (second-eluting enantiomer) [3, 12]: 7.29 | k1 retention factor (first-eluting enantiomer) [3, 13]: 4.11 | k2 retention factor (second-eluting enantiomer) [3, 13]: 4.11 | k1 retention factor (first-eluting enantiomer) [3, 14]: 4.37 | k2 retention factor (second-eluting enantiomer) [3, 14]: 4.37 | k1 retention factor (first-eluting enantiomer) [3, 15]: 4.92 | k2 retention factor (second-eluting enantiomer) [3, 15]: 4.92 | k1 retention factor (first-eluting enantiomer) [3, 16]: 3.24 | k2 retention factor (second-eluting enantiomer) [3, 16]: 3.24 | k1 retention factor (first-eluting enantiomer) [3, 17]: 3.45 | k2 retention factor (second-eluting enantiomer) [3, 17]: 3.45 | k1 retention factor (first-eluting enantiomer) [3, 18]: 4.03 | k2 retention factor (second-eluting enantiomer) [3, 18]: 4.03 | k1 retention factor (first-eluting enantiomer) [3, 19]: 2.71 | k2 retention factor (second-eluting enantiomer) [3, 19]: 2.71 | Rs resolution ([3]; acetate buffer, 1% 2-propanol): 1.8 | Rs resolution ([3]; bicarbonate buffer, 1% 2-propanol): 1.2 | Rs resolution ([3]; citrate buffer, 1% 2-propanol): 1.9 | Rs resolution ([3]; phosphate buffer, 1% 2-propanol): 1.8 | Q ([1]; Q = Δ(ΔH°)/T × Δ(ΔS°)298K): 1.4 | Δ(ΔG°) [1, 20]: -0.17 kcal/mol | Δ(ΔH°) [1, 20]: -0.669 kcal/mol | Δ(ΔS°) [1, 20]: −7.2 J/molK | Tiso isoenantioselective temperature ([1]; Δ(ΔH°)/Δ(ΔS°)): 128.9 °C

Cc1c(OCC(F)(F)F)ccnc1C[S@+]([O-])c1nc2ccccc2[nH]1 [S-lansoprazole]
Affinity to HSA compared to the antipode ([3]; based on the elution order of enantiomers on the HSA column): higher affinity | Δ(ΔG°) ([1]; single enantiomer): -1.58 kcal/mol | Δ(ΔH°) ([1]; single enantiomer): -2.68 kcal/mol | Δ(ΔS°) ([1]; single enantiomer): −15.9 J/molK | k retention factor ([2]; ibuprofen 0 mM): 11.17 | k retention factor ([2]; ibuprofen 0.01 mM): 9.81 | k retention factor ([2]; ibuprofen 0.05 mM): 8.51 | k retention factor ([2]; ibuprofen 0.1 mM): 7.60 | k retention factor ([2]; warfarin 0 mM): 11.17 | k retention factor ([2]; warfarin 0.01 mM): 9.03 | k retention factor ([2]; warfarin 0.05 mM): 8.13 | k retention factor ([2]; warfarin 0.1 mM): 7.44
